Patent US9738634B2, “Heterocyclic amide compound and herbicide” (SYNGENTA PARTICIPATIONS AG, priority 2013, dated 2017)

Legend:
Assay type in all cases: in vivo
oval-leafed pondweed [1] = test: Test Example 1: weedkilling efficacy, preemergent weed treatment in the submerged state; C: oval-leafed pondweed; details: treatment dosage 252 g/ha
In short: (§1)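 Pre-emergence application onto floodwater (4 cm, alluvial soil) on the day of sowing, dose expressed as g/ha from diluted emulsion formulation. Weeds sown with 2.5-leaf transplanted rice as crop; plants held at 25–30 °C in greenhouse and scored against assessment criteria after 3 weeks.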

directly sown rice [2] = test: Test Example 3: soil treatment, effect on crop; b: directly sown rice; details: treatment dosage 315 g/ha
In short: (§2)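 Crop and weed responses were judged three weeks after a uniform surface spray of the water-diluted emulsion at the given g/ha rate. Seeds sat beneath about 1.5 cm of sterilized diluvial soil, and boxes stood in a greenhouse at 25 to 30° C.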

green foxtail [3] = test: Test Example 4: weedkilling efficacy by foliar treatment; E: green foxtail; details: treatment dosage 315 g/ha
In short: (§3)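 Seeds are spot-sown into sterilized diluvial soil and covered with about 1.5 cm of soil. After 14 days' greenhouse growth at 25 to 30° C, plants are sprayed on stems and leaves with diluted emulsion at the stated g/ha rate, then scored at 3 weeks.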

Indian mallow [4] = test: Test Example 4: weedkilling efficacy by foliar treatment; K: Indian mallow; details: treatment dosage 315 g/ha
In short: as §3

black-grass [5] = test: Test Example 4: weedkilling efficacy by foliar treatment; H: black-grass; details: treatment dosage 315 g/ha
In short: as §3

beet [6] = test: Test Example 4: foliar treatment, effect on crop; f: beet; details: treatment dosage 315 g/ha
In short: as §3

beet [7] = test: Test Example 3: soil treatment, effect on crop; f: beet; details: treatment dosage 315 g/ha
In short: as §2

corn [8] = test: Test Example 4: foliar treatment, effect on crop; c: corn; details: treatment dosage 315 g/ha
In short: as §3

wheat [9] = test: Test Example 4: foliar treatment, effect on crop; e: wheat; details: treatment dosage 315 g/ha
In short: as §3

crabgrass [10] = test: Test Example 4: weedkilling efficacy by foliar treatment; D: crabgrass; details: treatment dosage 315 g/ha
In short: as §3

barnyard grass [11] = test: Test Example 2: weedkilling efficacy, growth period weed treatment in the submerged state; A: barnyard grass; details: treatment dosage 252 g/ha
In short: (§4)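 Weeds treated at the 1-2 leaf stage by application of diluted emulsion onto floodwater (4 cm depth, alluvial soil) at specified g/ha. Grown in greenhouse at 25 to 30° C; herbicidal effect rated three weeks after treatment.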

wild oat [12] = test: Test Example 4: weedkilling efficacy by foliar treatment; G: wild oat; details: treatment dosage 315 g/ha
In short: as §3

bulrush [13] = test: Test Example 1: weedkilling efficacy, preemergent weed treatment in the submerged state; B: bulrush; details: treatment dosage 252 g/ha
In short: as §1

fig-leafed goosefoot [14] = test: Test Example 3: weedkilling efficacy through soil treatment; M: fig-leafed goosefoot; details: treatment dosage 315 g/ha
In short: as §2

bulrush [15] = test: Test Example 2: weedkilling efficacy, growth period weed treatment in the submerged state; B: bulrush; details: treatment dosage 252 g/ha
In short: as §4

black-grass [16] = test: Test Example 3: weedkilling efficacy through soil treatment; H: black-grass; details: treatment dosage 315 g/ha
In short: as §2

crabgrass [17] = test: Test Example 3: weedkilling efficacy through soil treatment; D: crabgrass; details: treatment dosage 315 g/ha
In short: as §2

birds-eye speedwell [18] = test: Test Example 4: weedkilling efficacy by foliar treatment; p: birds-eye speedwell; details: treatment dosage 315 g/ha
In short: as §3

corn [19] = test: Test Example 3: soil treatment, effect on crop; c: corn; details: treatment dosage 315 g/ha
In short: as §2

fig-leafed goosefoot [20] = test: Test Example 4: weedkilling efficacy by foliar treatment; M: fig-leafed goosefoot; details: treatment dosage 315 g/ha
In short: as §3

catchweed = test: Test Example 4: weedkilling efficacy by foliar treatment; O: catchweed; details: treatment dosage 315 g/ha
In short: as §3

Italian ryegrass [21] = test: Test Example 3: weedkilling efficacy through soil treatment; I: Italian ryegrass; details: treatment dosage 315 g/ha
In short: as §2

transplanted rice = test: Test Example 1: preemergent weed treatment in the submerged state, effect on crop; a: transplanted rice; details: treatment dosage 252 g/ha
In short: as §1

Italian ryegrass [22] = test: Test Example 4: weedkilling efficacy by foliar treatment; I: Italian ryegrass; details: treatment dosage 315 g/ha
In short: as §3

green foxtail [23] = test: Test Example 3: weedkilling efficacy through soil treatment; E: green foxtail; details: treatment dosage 315 g/ha
In short: as §2

wild oat [24] = test: Test Example 3: weedkilling efficacy through soil treatment; G: wild oat; details: treatment dosage 315 g/ha
In short: as §2

directly sown rice [25] = test: Test Example 4: foliar treatment, effect on crop; b: directly sown rice; details: treatment dosage 315 g/ha
In short: as §3

soybean [26] = test: Test Example 4: foliar treatment, effect on crop; d: soybean; details: treatment dosage 315 g/ha
In short: as §3

redroot pigweed [27] = test: Test Example 3: weedkilling efficacy through soil treatment; L: redroot pigweed; details: treatment dosage 315 g/ha
In short: as §2

barnyard grass [28] = test: Test Example 1: weedkilling efficacy, preemergent weed treatment in the submerged state; A: barnyard grass; details: treatment dosage 252 g/ha
In short: as §1

chickweed [29] = test: Test Example 3: weedkilling efficacy through soil treatment; N: chickweed; details: treatment dosage 315 g/ha
In short: as §2

redroot pigweed [30] = test: Test Example 4: weedkilling efficacy by foliar treatment; L: redroot pigweed; details: treatment dosage 315 g/ha
In short: as §3

Indian mallow [31] = test: Test Example 3: weedkilling efficacy through soil treatment; K: Indian mallow; details: treatment dosage 315 g/ha
In short: as §2

oval-leafed pondweed [32] = test: Test Example 2: weedkilling efficacy, growth period weed treatment in the submerged state; C: oval-leafed pondweed; details: treatment dosage 252 g/ha
In short: as §4

wheat [33] = test: Test Example 3: soil treatment, effect on crop; e: wheat; details: treatment dosage 315 g/ha
In short: as §2

chickweed [34] = test: Test Example 4: weedkilling efficacy by foliar treatment; N: chickweed; details: treatment dosage 315 g/ha
In short: as §3

soybean [35] = test: Test Example 3: soil treatment, effect on crop; d: soybean; details: treatment dosage 315 g/ha
In short: as §2

birds-eye speedwell [36] = test: Test Example 3: weedkilling efficacy through soil treatment; p: birds-eye speedwell; details: treatment dosage 315 g/ha
In short: as §2

SMILES	C (oval-leafed pondweed) weedkilling efficacy grade (oval-leafed pondweed [1])	b (directly sown rice) effect on crop grade (directly sown rice [2])	E (green foxtail) weedkilling efficacy grade (green foxtail [3])	K (Indian mallow) weedkilling efficacy grade (Indian mallow [4])	H (black-grass) weedkilling efficacy grade (black-grass [5])	f (beet) effect on crop grade (beet [6])	c (corn) effect on crop grade (corn [8])	e (wheat) effect on crop grade (wheat [9])	D (crabgrass) weedkilling efficacy grade (crabgrass [10])	A (barnyard grass) weedkilling efficacy grade (barnyard grass [11])	G (wild oat) weedkilling efficacy grade (wild oat [12])	B (bulrush) weedkilling efficacy grade (bulrush [13])	M (fig-leafed goosefoot) weedkilling efficacy grade (fig-leafed goosefoot [14])	B (bulrush) weedkilling efficacy grade (bulrush [15])	H (black-grass) weedkilling efficacy grade (black-grass [16])	D (crabgrass) weedkilling efficacy grade (crabgrass [17])	P (birds-eye speedwell) weedkilling efficacy grade (birds-eye speedwell [18])	c (corn) effect on crop grade (corn [19])	M (fig-leafed goosefoot) weedkilling efficacy grade (fig-leafed goosefoot [20])	O (catchweed) weedkilling efficacy grade (catchweed)	also measured
CC1=C(c2ccccc2)C(=O)N(C(C)(C)C(=O)Nc2cc(Cl)cc(Cl)n2)CO1 [B-2-34]	5 (weed kill ratio 90% or more, (practically complete withering))	5 (weed kill ratio 90% or more, (practically complete withering))	5 (weed kill ratio 90% or more, (practically complete withering))	5 (weed kill ratio 90% or more, (practically complete withering))	5 (weed kill ratio 90% or more, (practically complete withering))	4 (weed kill ratio 70% or more, less than 90%)	3 (weed kill ratio 40% or more, less than 70%)	1 (weed kill ratio 5% or more, less than 20%)	5 (weed kill ratio 90% or more, (practically complete withering))	5 (weed kill ratio 90% or more, (practically complete withering))	5 (weed kill ratio 90% or more, (practically complete withering))	5 (weed kill ratio 90% or more, (practically complete withering))	4 (weed kill ratio 70% or more, less than 90%)	5 (weed kill ratio 90% or more, (practically complete withering))	5 (weed kill ratio 90% or more, (practically complete withering))	5 (weed kill ratio 90% or more, (practically complete withering))	3 (weed kill ratio 40% or more, less than 70%)	2 (weed kill ratio 20% or more, less than 40%)	3 (weed kill ratio 40% or more, less than 70%)	0 (weed kill ratio 5% or less (practically no effect))	f (beet) effect on crop grade (beet [7]): 5 (weed kill ratio 90% or more, (practically complete withering)); I (Italian ryegrass) weedkilling efficacy grade (Italian ryegrass [21]): 5 (weed kill ratio 90% or more, (practically complete withering)); a (transplanted rice) effect on crop grade (transplanted rice): 0 (weed kill ratio 5% or less (practically no effect)); I (Italian ryegrass) weedkilling efficacy grade (Italian ryegrass [22]): 5 (weed kill ratio 90% or more, (practically complete withering)); E (green foxtail) weedkilling efficacy grade (green foxtail [23]): 5 (weed kill ratio 90% or more, (practically complete withering)); G (wild oat) weedkilling efficacy grade (wild oat [24]): 5 (weed kill ratio 90% or more, (practically complete withering)); b (directly sown rice) effect on crop grade (directly sown rice [25]): 5 (weed kill ratio 90% or more, (practically complete withering)); d (soybean) effect on crop grade (soybean [26]): 5 (weed kill ratio 90% or more, (practically complete withering)); L (redroot pigweed) weedkilling efficacy grade (redroot pigweed [27]): 5 (weed kill ratio 90% or more, (practically complete withering)); A (barnyard grass) weedkilling efficacy grade (barnyard grass [28]): 5 (weed kill ratio 90% or more, (practically complete withering)); N (chickweed) weedkilling efficacy grade (chickweed [29]): 5 (weed kill ratio 90% or more, (practically complete withering)); L (redroot pigweed) weedkilling efficacy grade (redroot pigweed [30]): 4 (weed kill ratio 70% or more, less than 90%); K (Indian mallow) weedkilling efficacy grade (Indian mallow [31]): 5 (weed kill ratio 90% or more, (practically complete withering)); C (oval-leafed pondweed) weedkilling efficacy grade (oval-leafed pondweed [32]): 5 (weed kill ratio 90% or more, (practically complete withering)); e (wheat) effect on crop grade (wheat [33]): 1 (weed kill ratio 5% or more, less than 20%); N (chickweed) weedkilling efficacy grade (chickweed [34]): 3 (weed kill ratio 40% or more, less than 70%); d (soybean) effect on crop grade (soybean [35]): 1 (weed kill ratio 5% or more, less than 20%)
CC1=C(c2ccccc2)C(=O)N(C(C)(C)C(=O)Nc2cc(Cl)nc(Cl)c2)CO1 [B-4-05]	5 (weed kill ratio 90% or more, (practically complete withering))	5 (weed kill ratio 90% or more, (practically complete withering))	5 (weed kill ratio 90% or more, (practically complete withering))	3 (weed kill ratio 40% or more, less than 70%)	4 (weed kill ratio 70% or more, less than 90%)	0 (weed kill ratio 5% or less (practically no effect))	3 (weed kill ratio 40% or more, less than 70%)	0 (weed kill ratio 5% or less (practically no effect))	5 (weed kill ratio 90% or more, (practically complete withering))	4 (weed kill ratio 70% or more, less than 90%)	4 (weed kill ratio 70% or more, less than 90%)	5 (weed kill ratio 90% or more, (practically complete withering))	4 (weed kill ratio 70% or more, less than 90%)	5 (weed kill ratio 90% or more, (practically complete withering))	5 (weed kill ratio 90% or more, (practically complete withering))	5 (weed kill ratio 90% or more, (practically complete withering))	4 (weed kill ratio 70% or more, less than 90%)	0 (weed kill ratio 5% or less (practically no effect))	2 (weed kill ratio 20% or more, less than 40%)	1 (weed kill ratio 5% or more, less than 20%)	P (birds-eye speedwell) weedkilling efficacy grade (birds-eye speedwell [36]): 5 (weed kill ratio 90% or more, (practically complete withering)); I (Italian ryegrass) weedkilling efficacy grade (Italian ryegrass [21]): 5 (weed kill ratio 90% or more, (practically complete withering)); a (transplanted rice) effect on crop grade (transplanted rice): 0 (weed kill ratio 5% or less (practically no effect)); I (Italian ryegrass) weedkilling efficacy grade (Italian ryegrass [22]): 5 (weed kill ratio 90% or more, (practically complete withering)); E (green foxtail) weedkilling efficacy grade (green foxtail [23]): 5 (weed kill ratio 90% or more, (practically complete withering)); G (wild oat) weedkilling efficacy grade (wild oat [24]): 5 (weed kill ratio 90% or more, (practically complete withering)); b (directly sown rice) effect on crop grade (directly sown rice [25]): 5 (weed kill ratio 90% or more, (practically complete withering)); d (soybean) effect on crop grade (soybean [26]): 3 (weed kill ratio 40% or more, less than 70%); L (redroot pigweed) weedkilling efficacy grade (redroot pigweed [27]): 4 (weed kill ratio 70% or more, less than 90%); A (barnyard grass) weedkilling efficacy grade (barnyard grass [28]): 5 (weed kill ratio 90% or more, (practically complete withering)); N (chickweed) weedkilling efficacy grade (chickweed [29]): 3 (weed kill ratio 40% or more, less than 70%); L (redroot pigweed) weedkilling efficacy grade (redroot pigweed [30]): 3 (weed kill ratio 40% or more, less than 70%); K (Indian mallow) weedkilling efficacy grade (Indian mallow [31]): 3 (weed kill ratio 40% or more, less than 70%); e (wheat) effect on crop grade (wheat [33]): 0 (weed kill ratio 5% or less (practically no effect)); N (chickweed) weedkilling efficacy grade (chickweed [34]): 2 (weed kill ratio 20% or more, less than 40%); d (soybean) effect on crop grade (soybean [35]): 0 (weed kill ratio 5% or less (practically no effect))
